What all share (type): cell-based
Assay [1] has as its system C2C12 cells. The assay is described as follows: Autophagy flux (LC3II/I ratio) in C2C12 cells co-incubated with H2O2 (FIG. 6A). To be noted: 24 hours with concomitant 400 uM H2O2, BHB 30 ug/mL, CBD 5 ug/mL, selenium 2 ug/mL. The protocol:
(§1) Treatments and cells. 6-hour and 24-hour cell culture treatments were with one of the following compounds: 1. Control or “vehicle” (DMSO+phosphate-buffered saline only); 2. Niagen® (nicotinamide riboside (NR)(5 μg/mL); 3. BHB (beta hydroxybutyrate) (30 ug/mL); 4. CBD (cannabidiol) (5 ug/mL); 5. Olive leaf (5 ug/mL); 6. Dynamine (1 ug/mL); 7. Selenium (2 ug/mL); 8. Tributyrin (5 ug/mL)
(§2) Treatment materials and methods. C2C12 cells were treated with compounds 1-8 as listed above for 6 hours without hydrogen peroxide (H2O2) (termed “unperturbed cells” throughout); or cells were treated with compounds 1-8 above for 24 hours with a concomitant 400 uM hydrogen peroxide (H2O2).
The C2C12 line resembles mature muscle cells given that they are multinucleated and are past the rapid growth/proliferation phase.
Autophagy flux (or activity) was assessed by assaying the LC3II/I ratio. This assay has been deemed the “gold standard” in autophagy monitoring (see e.g., Autophagy, 2007 November-December; 3(6):542-5).

The test system of assay [2] is C2C12 cells. The assay is described as follows: Cellular oxidative stress (4HNE assay) in C2C12 cells with H2O2 (FIG. 6C). The note with it: 24 hours with concomitant 400 uM H2O2, BHB 30 ug/mL. The protocol: as §1, §2
Oxidative stress was assessed using the 4HNE assay which is a product of cellular lipid oxidation (see e.g., Am J Physiol Cell Physiol. 2016 Oct. 1; 311(4): C537-C543).

Assay [3] concerns C2C12 cells. The assay is described as follows: Total antioxidant capacity (Trolox equivalent antioxidant capacity, TEAC) in C2C12 cells with H2O2 (FIG. 5B). To be noted: 24 hours with concomitant 400 uM H2O2, selenium 2 ug/mL, tributyrin 5 ug/mL. The protocol: Treatments and cells. 6-hour and 24-hour cell culture treatments were with one of the following compounds: 1. Control or “vehicle” (DMSO+phosphate-buffered saline only); 2. […]® (nicotinamide riboside (NR)(5 μg/mL); 3. BHB (beta hydroxybutyrate) (30 ug/mL); 4. CBD (cannabidiol) (5 ug/mL); 5. Olive leaf (5 ug/mL); 6. Dynamine (1 ug/mL); 7. […] Tributyrin (5 ug/mL) Treatment materials and methods. C2C12 cells were treated with compounds 1-8 as listed above for 6 hours without hydrogen peroxide (H2O2) (termed “unperturbed cells” throughout); or cells were treated with compounds 1-8 above for 24 hours with a concomitant 400 uM hydrogen peroxide (H2O2). Total antioxidant capacity was assessed using a Trolox equivalent antioxidant capacity (TEAC) assay.

`CC(O)CC(=O)O` (stereo not drawn) [BHB, beta hydroxybutyrate]: the “autophagy (LC3II/I ratio)” value with C2C12 cells [1] is “increased autophagy”. Besides, in the assay with C2C12 cells [2], the “cellular oxidative stress (4HNE)” value is reported as “decrease cellular oxidative stress”.

On to `C=C(C)[C@@H]1CCC(C)=C[C@H]1c1c(O)cc(CCCCC)cc1O` [CBD, cannabidiol], for which the “autophagy (LC3II/I ratio)” value in the assay on C2C12 cells [1] is “increased autophagy”.

In the case of `[Se]` [selenium, Selenium], in the assay on C2C12 cells [1], the “autophagy (LC3II/I ratio)” value was “increased autophagy”. Also, the “total antioxidant capacity (Trolox)” value in the assay on C2C12 cells [3] is listed as “increase (e.g., restore) total antioxidant activity”; in the assay on C2C12 cells [3] (listed as Selenium) it was “increase or restore antioxidant capacity”.

With `CCCC(=O)OCC(COC(=O)CCC)OC(=O)CCC` [tributyrin, Tributyrin], the “total antioxidant capacity (Trolox)” value in the assay on C2C12 cells [3] is recorded as “increase (e.g., restore) total antioxidant activity”; in the assay on C2C12 cells [3] (listed as Tributyrin), “increase or restore antioxidant capacity”.

The values above are taken from US20230025435A1, “COMPOSITIONS AND METHODS FOR INCREASING CELLULAR VITALITY AND LONGEVITY AND DECREASING MOLECULAR AGEING” (JUVN3 Holdings, LLC, priority 2020, published 2023).
